Patent EP3419977B1, “PLATINUM(II) RING-FUSED CHLORINS, METHODS AND USES THEREOF” (Universidade de Coimbra, priority 2016, dated 2017)
Where two headings read alike, the source gives them in different places.

Legend:
[1] = in toluene, used as standard; cited from earlier work
[2] = in water, used as standard for phosphorescence quantum yields; cited from earlier work
[3] = tested on: human melanocytic melanoma cells (A375); assay: Photocytotoxicity (photodynamic treatment, MTT assay); assay type: cell-based; settings: 24 h incubation, irradiated 7.5 mW/cm^2 to 10 J, red filter (cut off < 560 nm)
Experimental: In an embodiment the photodynamic activity were as following: For each experiment, A375 cells were plated and kept in the incubator overnight, in order to allow the attachment of the cells. The initial formulation of the sensitizers consisted of a 1 mg/mL solution in DMSO and the desired concentrations were achieved by successive dilutions, being always administered to the cells at 1% DMSO. After sensitizer administration (from 1 nM to 10 µM), cells were incubated for 24 h. Controls were performed on every test. Cells were washed with PBS and new drug-free medium was added. Each plate was irradiated with a fluence rate of 7.5 mW/cm^2 until a total of 10 J was reached, using a light source equipped with a red filter (cut off < 560 nm).

A375 cells = settings: absence of light
Experimental: In an embodiment the cell culture conditions were as following: The A375 (CRL1619) human melanoma cell lines were purchased from American Type Culture Collection and cultured according to standard procedures using the Dulbecco's Modified Eagle medium (Sigma-Aldrich, Inc; Sigma D-5648) supplemented with 10% heat-inactivated fetal bovine serum (Gibco Invitrogen Life Technologies; Gibco 2010-04), 1% Penicillin-Streptomycin (Gibco Invitrogen Life Technologies; 100 U/mL penicillin and 10 µg/mL streptomycin - Gibco 15140-122) and 100 µM sodium pyruvate (Gibco Invitrogen Life Technologies; Gibco 1360) at 37 °C, in a humidified incubator with 95% air and 5% CO2. For all studies, cells were detached using a solution of 0.25% trypsin-EDTA (Gibco).
In an embodiment for the evaluation of photocytotoxicity a MTT assay was performed. Cell culture plates were washed and incubated with a solution of 3-(4,5-dimethylthiazol-2-yl)-2,5- diphenyltetrazolium bromide (0.5 mg/mL, Sigma) in PBS, pH 7.4, in the dark at 37 °C for 4 hours. To solubilize formazan crystals, a 0.04 M solution of hydrochloric acid in isopropanol was added. Absorbance was measured using a Biotek Synergy HT Plate Reader. Cytotoxicity was expressed as the inhibition percentage of cultures subjected to PDT, correlated with cultures only treated with the vehicle administration of sensitizers. […]

Row | Compound | IC50 [3] [µM] | other results
1 | C1=Cc2nc1c(-c1ccccc1)c1ccc([nH]1)c(-c1ccccc1)c1nc(c(-c3ccccc3)c3ccc([nH]3)c2-c2ccccc2)C=C1 [TPP, meso-tetraphenylporphyrin] |  | φF [1]: 0.11
2 | [Ru+2].c1ccc(-c2ccccn2)nc1.c1ccc(-c2ccccn2)nc1.c1ccc(-c2ccccn2)nc1 [tris(2,2'-bipyridyl)ruthenium (II)] |  | φF [2]: 0.042
3 | Photofrin@ | 0.156 | 
4 | platinum (II) 2,3-dihydroxymethyl-4,5,6,7-tetrahydropyrazolo[1,5-α]pyridine-fused chlorin [Chlorin 8] | 0.144 | IC50 (A375 cells): 22.3 µM
5 | platinum (II) dimethyl 4,5,6,7-tetrahydropyrazolo[1,5-α]pyridine-2,3-dicarboxylate-fused chlorin [Chlorin 7b] | > 5 | 
